According to the supplement of paper PMC10307832:

Tests used:
Test in all cases: relative viability (nuclei count vs DMSO), 5 days (fraction); higher = more cells survive
[1] = compound: Cc1ccc(C(=O)Nc2cccc(C(F)(F)F)c2)cc1Nc1cncc(C(N)=O)c1 [ALW-II-49-7] + Cc1nc(Nc2ncc(C(=O)Nc3c(C)cccc3Cl)s2)cc(N2CCN(CCO)CC2)n1 [Dasatinib] (partner 0.075 µM)
In short: (§1)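 The day after seeding in 1536-well plates, lung cancer cell lines were treated by pin tool with a single drug, or with a fixed anchor-drug dose together with five library-drug doses (not always all listed) in √10 steps. After 5 days, a combined fix-and-stain solution (final 0.05% Triton X-100, 1% formaldehyde, 1 ug/ml Hoechst) was added. Nuclei counted on 4× images gave relative viability as treated counts over vehicle counts, reported as the median of duplicate plates.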

[2] = compound: C1CC1C(=O)NC2=NNC3=C2C=CC(=C3)C4=CC(=CC=C4)C(=O)NC5CC5 [XMD13-2] + O=C(c1cc(Cc2n[nH]c(=O)c3ccccc23)ccc1F)N1CCN(C(=O)C2CC2)CC1 [Olaparib] (partner 8 µM)
In short: as §1

[3] = compound: Cc1ccc(C(=O)Nc2cccc(C(F)(F)F)c2)cc1Nc1cncc(C(N)=O)c1 [ALW-II-49-7] + CC1(C)CCC(c2ccc(Cl)cc2)=C(CN2CCN(c3ccc(C(=O)NS(=O)(=O)c4ccc(N[C@H](CCN5CCOCC5)CSc5ccccc5)c(S(=O)(=O)C(F)(F)F)c4)cc3)CC2)C1 [Navitoclax] (partner 0.5 µM)
In short: as §1

[4] = compound: C1CC1C(=O)NC2=NNC3=C2C=CC(=C3)C4=CC(=CC=C4)C(=O)NC5CC5 [XMD13-2] + Nc1nc2[nH]cc(CCc3ccc(C(=O)N[C@@H](CCC(=O)O)C(=O)O)cc3)c2c(=O)[nH]1 [Pemetrexed] (partner 0.2 µM)
In short: as §1

| Cell Line | relative viability ([1]; first compound 0.08 µM) | relative viability ([1]; first compound 0.253 µM) | relative viability ([1]; first compound 0.8 µM) | relative viability ([1]; first compound 2.53 µM) | relative viability ([1]; first compound 8 µM) | relative viability ([2]; first compound 0.05 µM) | relative viability ([2]; first compound 0.1581 µM) | relative viability ([2]; first compound 0.5 µM) | relative viability ([2]; first compound 1.581 µM) | relative viability ([2]; first compound 5 µM) | relative viability ([3]; first compound 0.08 µM) | relative viability ([3]; first compound 0.253 µM) | relative viability ([3]; first compound 0.8 µM) | relative viability ([3]; first compound 2.53 µM) | relative viability ([3]; first compound 8 µM) | relative viability ([4]; first compound 0.05 µM) | relative viability ([4]; first compound 0.1581 µM) | relative viability ([4]; first compound 0.5 µM) | relative viability ([4]; first compound 1.581 µM) | relative viability ([4]; first compound 5 µM) |
| --- | --- | --- | --- | --- | --- | --- | --- | --- | --- | --- | --- | --- | --- | --- | --- | --- | --- | --- | --- | --- |
| NCI-H1355 | 0.615 | 0.731 | 0.622 | 0.573 | 0.658 | 0.755 | 0.716 | 0.807 | 0.762 | 0.773 | 0.93 | 0.988 | 0.981 | 0.715 | 0.802 | 1.04 | 1.05 | 1.06 | 1.06 | 1.1 |
| NCI-H1650 | 0.273 | 0.306 | 0.323 | 0.282 | 0.341 | 0.78 | 0.903 | 0.809 | 0.795 | 0.827 | 1.05 | 1.06 | 1.32 | 1.34 | 1.21 | 0.351 | 0.388 | 0.348 | 0.418 | 0.395 |
| SW 1573 | 0.473 | 0.399 | 0.568 | 0.514 | 0.304 | 0.66 | 0.479 | 0.497 | 0.395 | 0.287 | 1.01 | 0.932 | 1.21 | 1.11 | 0.787 | 0.831 | 0.847 | 0.788 | 0.79 | 0.814 |
| LU99A | 0.62 | 0.486 | 0.576 | 0.498 | 0.75 | 0.288 | 0.277 | 0.248 | 0.273 | 0.263 | 0.899 | 0.838 | 0.926 | 0.895 | 0.779 | 0.208 | 0.203 | 0.189 | 0.213 | 0.187 |
| LCLC-97TM1 | 0.808 | 0.944 | 0.808 | 0.88 | 0.851 | 0.498 | 0.507 | 0.336 | 0.263 | 0.173 | 0.628 | 0.334 | 0.57 | 0.131 | 0.431 | 0.178 | 0.155 | 0.166 | 0.185 | 0.159 |
| LC-2-ad | 0.481 | 0.412 | 0.501 | 0.7 | 0.387 | 0.684 | 0.716 | 0.681 | 0.701 | 0.718 | 0.445 | 0.463 | 0.37 | 0.341 | 0.42 | 0.285 | 0.26 | 0.282 | 0.303 | 0.256 |
| NCI-H1395 | 0.436 | 0.457 | 0.407 | 0.431 | 0.417 | 0.48 | 0.493 | 0.46 | 0.477 | 0.504 | 1.28 | 1.16 | 1.01 | 0.307 | 1.22 | 0.93 | 0.998 | 0.879 | 0.876 | 0.911 |
| NCI-H2228 | 0.57 | 0.391 | 0.509 | 0.538 | 0.455 | 0.834 | 0.517 | 0.623 | 0.554 | 0.747 | 1.4 | 0.809 | 0.628 | 0.838 | 0.84 | 0.354 | 0.315 | 0.339 | 0.31 | 0.27 |
| NCI-H1944 | 0.206 | 0.237 | 0.232 | 0.228 | 0.227 | 0.454 | 0.402 | 0.408 | 0.55 | 0.414 | 1.06 | 1.14 | 0.991 | 1.11 | 1.07 | 0.74 | 0.573 | 0.622 | 0.875 | 0.642 |
| HOP-62 | 0.635 | 0.617 | 0.56 | 0.616 | 0.495 | 0.307 | 0.697 | 0.391 |  | 0.489 | 1.03 | 0.866 | 1.02 | 0.485 | 0.67 | 0.264 | 0.339 | 0.299 | 0.285 | 0.278 |
| NCI-H2347 | 0.264 | 0.302 | 0.301 | 0.34 | 0.356 | 0.608 | 0.538 | 0.598 | 0.532 | 0.601 | 0.899 | 0.807 | 0.721 | 0.44 | 0.685 | 0.458 | 0.443 | 0.446 | 0.453 | 0.45 |
| NCI-H2087 | 0.924 | 0.784 | 0.825 | 0.978 | 0.753 | 0.643 | 0.607 | 0.691 | 0.562 | 0.567 | 1.12 | 0.937 | 0.838 | 0.907 | 0.949 | 0.635 | 0.661 | 0.624 | 0.67 | 0.583 |
| EPLC-272H | 0.283 |  | 0.26 | 0.345 | 0.375 | 0.976 | 0.854 | 0.748 | 0.528 | 0.172 | 1.16 | 1.03 | 1.04 | 1.06 | 1.19 | 0.345 | 0.31 | 0.247 | 0.254 | 0.168 |
| LXF-289 | 0.213 | 0.286 | 0.24 | 0.187 | 0.183 | 1.28 | 1.03 | 1.15 | 0.99 | 1.05 | 0.945 | 0.932 | 0.99 | 1.05 | 0.99 | 0.92 | 0.952 | 0.892 | 0.964 | 0.952 |
| COR-L23 | 0.483 | 0.419 | 0.45 | 0.443 | 0.523 | 0.327 | 0.36 | 0.33 | 0.336 | 0.387 | 1.14 | 0.954 | 1.04 | 0.805 | 1.27 | 0.197 | 0.194 | 0.204 | 0.218 | 0.197 |
| RERF-LC-KJ | 0.827 | 0.815 | 0.951 | 0.665 | 0.741 | 0.971 | 0.917 | 0.928 | 0.983 | 0.985 | 0.876 | 1.27 | 0.938 | 1.05 | 0.866 | 0.478 | 0.425 | 0.476 | 0.385 | 0.463 |
